In one test the target is human FLAP (Homo sapiens (Human), UniProt P20292). Briefly: FLAP binding assay (HTRF format). The procedure: (§1) The ability of the compounds of the present invention to treat a FLAP-mediated disease and/or disorder, or associated symptoms or complications thereof, was determined using the following procedures. Binding assay data represent the average value obtained from two different assay plates, with samples run in duplicate on each plate. Human whole blood assay data represent a single replicate on an assay plate using whole blood from at least one healthy donor.
Data are expressed as a HTRF ratio.

The test system of test [1] is leukotriene pathway in human whole blood. Description: Human whole blood assay (LTB4 levels after A23187 stimulation). The format is cell-based. The protocol:
as §1
An in vitro cellular assay was performed using human whole blood collected in heparin-containing tubes, which was used to test the ability of compounds to modulate the leukotriene pathway in human whole blood. The blood was diluted 1:1 in RPMI medium, pre-incubated for 15 min at 37° Celsius with test compounds at various concentrations, and then stimulated with calcium ionophore, A23187 (7 μg/mL), for 30 min at 37° Celsius. The samples were then centrifuged and plasma was removed. The plasma was diluted in assay buffer and LTB4 levels were measured using a commercial kit (Enzo Life Sciences). The concentration of each compound that was required for half-maximal inhibition (modulation) of recombinant enzyme activity (IC50) was calculated by a 4-parameter equation using the program GraphPad Prism (GraphPad software).

The mark [2] stands for this setting: human FLAP wild type membranes, HTRF format, Table 6 (additional runs).
Setting [3] is: human whole blood diluted 1:1 in RPMI, A23187 stimulation, Table 6 (additional runs).
Where [4] appears, read: blood diluted 1:1 in RPMI, 15 min pre-incubation, A23187 7 μg/mL for 30 min at 37° Celsius, plasma LTB4.

pIC50, pKi: −log10 of the molar value. Structures can show the parent of a compound that is named as a salt. Where two headings read alike, the source gives them in different places.

Consider 34 molecules from patent US9732093B2, “FLAP modulators” (JANSSEN PHARMACEUTICA NV, priority 2013, dated 2017).

human FLAP, sequence (P20292 whole entry): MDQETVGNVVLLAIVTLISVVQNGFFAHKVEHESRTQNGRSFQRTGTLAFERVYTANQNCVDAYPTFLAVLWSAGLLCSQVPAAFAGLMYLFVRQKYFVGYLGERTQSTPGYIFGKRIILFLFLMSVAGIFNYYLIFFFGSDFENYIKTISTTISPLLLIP

For `Nc1cnc(-c2ccc(C3CCC3)c(Oc3ccc(N)nn3)c2F)cn1` [Example 338, 6-[3-(5-Aminopyrazin-2-yl)-6-cyclobutyl-2-fluorophenoxy]pyridazin-3-amine], on human FLAP (setting [2]), the pKi was 8.77. For the same molecule, the pIC50 in test [1] (setting [3]) is 7.02.

In the case of `COC(=O)c1coc(COc2c(C3CCC3)ccc(-c3cnc(N)cn3)c2F)n1` [Example 281, Methyl 2-{[3-(5-aminopyrazin-2-yl)-6-cyclobutyl-2-fluorophenoxy]methyl}-1,3-oxazole-4-carboxylate trifluoroacetic acid salt], the pIC50 in test [1] (setting [3]) was 6.34.

Turning to `Nc1cnc(-c2ccc(C3CCC3)c(OCc3ccc(-c4cnc(N)nc4)cc3)c2F)cn1` [Example 341, 5-(4-{[3-(5-Aminopyrazin-2-yl)-6-cyclobutyl-2-fluorophenoxy]methyl}phenyl)pyrimidin-2-amine], at human FLAP (setting [2]), the negative-log Ki (pKi) is 7.65. The negative logarithm of the IC50 (pIC50) in test [1] (setting [3]) is 6.91.

At human FLAP (setting [2]), `Nc1cnc(-c2ccc(C3CCC3)c(OCc3ccc(-c4ccc(C(F)(F)F)cc4)cc3)c2F)cn1` [Example 342, 5-(4-Cyclobutyl-2-fluor-3-{[4-(trifluoromethyl)biphenyl-4-yl]methoxy}phenyl)pyrazin-2-amine] had a negative-log Ki (pKi) of 8.09. Besides, the pIC50 in test [1] (setting [3]) is 7.58.

In test [1] (setting [4]), “5-(4-Cyclobutyl-2-fluoro-3-hydroxyphenyl)pyridin-2-amine [Intermediate F]” gave a negative logarithm of the IC50 (pIC50) of 5.89.

At human FLAP (setting [2]), `Nc1cnc(-c2ccc(C3CCC3)c(OCc3cccc(C(F)(F)F)c3)c2F)cn1` [Compound 2, 5-(4-Cyclobutyl-2-fluoro-3-{[3-(trifluoromethyl)benzyl]oxy}phenyl)pyrazin-2-amine] had a pKi of 7.06. This molecule also showed a pIC50 in test [1] (setting [3]) of 6.05.

Take `Nc1cnc(-c2ccc(C3CCC3)c(OCCNc3cnccn3)c2F)cn1` [Example 295, 5-{4-Cyclobutyl-2-fluoro-3-[2-(pyrazin-2-ylamino)ethoxy]phenyl}pyrazin-2-amine trifluoroacetic acid salt]: the pIC50 in test [1] (setting [3]) was 6.73.

For `Nc1cnc(-c2ccc(C3CCC3)c(Oc3cncc(N)n3)c2F)cn1` [Example 348, 5-{3-[(6-Aminopyrazin-2-yl)oxy]-4-cyclobutyl-2-fluorophenyl}pyrazin-2-amine], the pKi at human FLAP (setting [2]) is 7.88. Besides, in test [1] (setting [3]), the negative-log IC50 (pIC50) was 6.83.

With `Cc1ccc(-c2cnc(N)cn2)c(F)c1Oc1ncccn1` [Example 314, 5-[2-Fluoro-4-methyl-3-(pyrimidin-2-yloxy)phenyl]pyrazin-2-amine], in test [1] (setting [3]), the pIC50 was < 5.00.

Turning to `COc1cc(Oc2c(C3CCC3)ccc(-c3cnc(N)cn3)c2F)ncn1` [Example 97, 5-{4-Cyclobutyl-2-fluoro-3-[(6-methoxypyrimidin-4-yl)oxy]phenyl}pyrazin-2-amine], the negative-log IC50 (pIC50) in test [1] (setting [3]) is 6.90.

For the molecule `NC(=O)c1ccc(Oc2c(C3CCC3)ccc(-c3cnc(N)cn3)c2F)cc1` [Example 155, 4-[3-(5-Aminopyrazin-2-yl)-6-cyclobutyl-2-fluorophenoxy]benzamide], in test [1] (setting [3]), the negative-log IC50 (pIC50) was 6.89.

At human FLAP (setting [2]), `Nc1cnc(-c2ccc(CC3CCCCC3)c(O)c2F)cn1` [Example 346, 3-(5-Aminopyrazin-2-yl)-6-(cyclohexylmethyl)-2-fluorophenol] gave a pKi of 7.34. The negative logarithm of the IC50 (pIC50) in test [1] (setting [3]) was 6.75.

Regarding `Nc1cnc(-c2ccc(C3CCC3)c(Oc3cc(N)ncn3)c2F)cn1` [Example 136, 6-[3-(5-Aminopyrazin-2-yl)-6-cyclobutyl-2-fluorophenoxy]pyrimidin-4-amine], the pKi on human FLAP (setting [2]) was 8.41. This molecule also gave a negative logarithm of the IC50 (pIC50) in test [1] (setting [3]) of 7.25.

For `Nc1ncc(-c2ccc(C3CCCC3)c(Oc3ncccn3)c2F)cn1` [Example 334, 5-[4-Cyclopentyl-2-fluoro-3-(pyrimidin-2-yloxy)phenyl]pyrimidin-2-amine], the pKi at human FLAP (setting [2]) is 8.34. The molecule also gave a pIC50 in test [1] (setting [3]) of 7.28.

In turn, `Nc1cnc(-c2ccc(C3CCC3)c(OCCN3C(=O)c4ccccc4C3=O)c2F)cn1` [Example 293, 2-{2-[3-(5-Aminopyrazin-2-yl)-6-cyclobutyl-2-fluorophenoxy]ethyl}-1H-isoindole-1,3(2H)-dione] gave a negative logarithm of the IC50 (pIC50) in test [1] (setting [3]) of 7.00.

At human FLAP (setting [2]), `Nc1cnc(-c2ccc(C3CCCC3)c(Oc3nccc(N)n3)c2F)cn1` [Example 336, 2-[3-(5-Aminopyrazin-2-yl)-6-cyclopentyl-2-fluorophenoxy]pyrimidin-4-amine] had a pKi of 8.41. In test [1] (setting [3]), this molecule had a pIC50 of 7.62.

For “2-(4-Cyclobutyl-2-fluoro-3-{[4-(trifluoromethyl)benzyl]oxy}phenyl)-5H-pyrrolo[2,3-b]pyrazine trifluoroacetate salt [Example 177]”, the results for the pIC50 in test [1] (setting [4]) and in test [1] (setting [3]) were 6.11 and 6.05, respectively.

Take `Nc1cnc(-c2ccc(C3CCC3)c(OCCNc3ncccn3)c2F)cn1` [Example 296, N-{2-[3-(5-Aminopyrazin-2-yl)-6-cyclobutyl-2-fluorophenoxy]ethyl}pyrimidin-2-amine trifluoroacetic acid salt]: the negative logarithm of the IC50 (pIC50) in test [1] (setting [3]) is 6.55.

`Nc1cnc(-c2ccc(C3CCC3)c(Oc3cccnn3)c2F)cn1` [Example 277, 5-[4-Cyclobutyl-2-fluoro-3-(pyridazin-3-yloxy)phenyl]pyrazin-2-amine] had a negative-log IC50 (pIC50) in test [1] (setting [3]) of 6.72. The pIC50 values of the last two molecules are within 0.2 log units of each other.

`Nc1ccnc(Oc2c(C3CCCC3)ccc(-c3cnc(N)nc3)c2F)n1` [Example 335, 5-{3-[(4-Aminopyrimidin-2-yl)oxy]-4-cyclopentyl-2-fluorophenyl}pyrimidin-2-amine] showed a negative-log Ki (pKi) on human FLAP (setting [2]) of 8.44. The pIC50 in test [1] (setting [3]) is 7.43.

`Fc1c(-c2cnc3c(c2)OCCN3)ccc(C2CCC2)c1Oc1ncccn1` [Example 225, 7-(4-Cyclobutyl-2-fluoro-3-(pyrimidin-2-yloxy)phenyl)-3,4-dihydro-2H-pyrido[3,2-b][1,4]oxazine] had a negative logarithm of the Ki (pKi) at human FLAP (setting [2]) of 7.63. This molecule had a negative logarithm of the IC50 (pIC50) in test [1] (setting [3]) of 6.54.

Consider `CC(C)(C)c1ccc(-c2cnc(N)nc2)c(F)c1Oc1ncccn1` [Example 207, 5-[4-tert-Butyl-2-fluoro-3-(pyrimidin-2-yloxy)phenyl]pyrimidin-2-amine], for which the negative-log Ki (pKi) at human FLAP (setting [2]) is 7.29. The molecule also had a pIC50 in test [1] (setting [3]) of 7.11.

Molecule `Nc1cnc(-c2ccc(C3CCC3)c(Oc3cc(O)ncn3)c2F)cn1` [Example 98] showed a negative logarithm of the IC50 (pIC50) in test [1] (setting [3]) of 6.91.

`CC(C)(C)c1ccc(-c2cnc(N)nc2)c(F)c1O` [Intermediate H, 3-(2-Aminopyrimidin-5-yl)-6-tert-butyl-2-fluorophenol]: the pKi at human FLAP (human FLAP-containing membranes, HTRF ligand 25 nM, 2 h, average of two plates, duplicates, read-out: FLAP Binding wild type HTRF Ki) is 7.14. Further, the negative logarithm of the IC50 (pIC50) in test [1] (Homo sapiens, blood diluted 1:1 in RPMI, 15 min pre-incubation, A23187 7 μg/mL for 30 min at 37° Celsius, plasma LTB4) is 6.54; in test [1] (setting [3]) it was 6.54.

Regarding `Nc1cnnc(Oc2c(C3CCC3)ccc(-c3cnc(N)cn3)c2F)c1` [Example 350, 6-[3-(5-Aminopyrazin-2-yl)-6-cyclobutyl-2-fluorophenoxy]pyridazin-4-amine], on human FLAP (setting [2]), the pKi was 7.28. Also, the pIC50 in test [1] (setting [3]) is 6.35.

As to `Nc1cnc(-c2ccc(C3CCC3)c(Oc3ccnc(N)n3)c2F)cn1` [Example 130, 4-[3-(5-Aminopyrazin-2-yl)-6-cyclobutyl-2-fluorophenoxy]pyrimidin-2-amine], the pIC50 in test [1] (setting [3]) is 7.67.

Take `Nc1cnc(-c2ccc(C3CCC3)c(OCCNc3ccncn3)c2F)cn1` [Example 297, N-{2-[3-(5-Aminopyrazin-2-yl)-6-cyclobutyl-2-fluorophenoxy]ethyl}pyrimidin-4-amine]: in test [1] (setting [3]), the pIC50 is 6.67. Against the preceding molecule, the pIC50 is 1.00 log units lower.

`Nc1cnc(-c2ccc(C3CCC3)c(OCC(O)Cn3c(=O)[nH]c4ccccc43)c2F)cn1` (racemic) [Example 311, racemic 1-{3-[3-(5-Aminopyrazin-2-yl)-6-cyclobutyl-2-fluorophenoxy]-2-hydroxypropyl}-1,3-dihydro-2H-benzimidazol-2-one] had a pIC50 in test [1] (setting [3]) of 6.58. The pIC50 values of the last two molecules are within 0.2 log units of each other.

Molecule `Nc1cnc(-c2ccc(C3CC3)c(Oc3nccc(N)n3)c2F)cn1` [Example 279, 2-[3-(5-Aminopyrazin-2-yl)-6-cyclopropyl-2-fluorophenoxy]pyrimidin-4-amine] showed a negative logarithm of the IC50 (pIC50) in test [1] (setting [3]) of 6.94.

Turning to `CC(C)(C)c1ccc(-c2cnc(N)nc2)c(F)c1Oc1cc(N)ncn1` [Example 208, 5-{3-[(6-Aminopyrimidin-4-yl)oxy]-4-tert-butyl-2-fluorophenyl}pyrimidin-2-amine], the pIC50 in test [1] (setting [3]) is 6.79.

Regarding “5-(4-Cyclobutyl-2-fluoro-3-methoxyphenyl)-1H-pyrrolo[2,3-b]pyridine [Intermediate I]”, the negative-log IC50 (pIC50) in test [1] (setting [4]) and in test [1] (setting [3]) was 5.78 in each case.

`Nc1cnc(-c2ccc(C3CCC3)c(OCc3nc4ccccc4s3)c2F)cn1` [Example 283, 5-[3-(1,3-Benzothiazol-2-ylmethoxy)-4-cyclobutyl-2-fluorophenyl]pyrazin-2-amine trifluoroacetic acid salt] gave a negative-log IC50 (pIC50) in test [1] (setting [3]) of 6.27.

Regarding `N#CCOc1c(C2CCC2)ccc(-c2cnc(N)cn2)c1F` [Example 276, [3-(5-Aminopyrazin-2-yl)-6-cyclobutyl-2-fluorophenoxy]acetonitrile], in test [1] (setting [3]), the negative-log IC50 (pIC50) was 5.73.

`CC(C)CNc1nccc(Oc2c(C3CCC3)ccc(-c3cnc(N)cn3)c2F)n1` [Example 261, 4-(3-(5-Aminopyrazin-2-yl)-6-cyclobutyl-2-fluorophenoxy)-N-isobutylpyrimidin-2-amine trifluoroacetic acid salt] gave a pKi at human FLAP (setting [2]) of 8.66.
